Results on 1 compound are retold here after patent publication US9861616B2, “Methods for treating respiratory diseases and formulations therefor” (priority 2013, dated 2018).

For data set [1], the system named is B. cepacia BCEP 953, BCEP 954. In words: Time-kill macrobroth MICs. The format is cell-based. As to the method: (§1) Original MICs of each strain to CEM-101 and other comparators were tested by CLSI microdilution methodology. Trays were obtained from Trek, Inc., Cleveland, Ohio. Time-kill macrobroth MIC dilution by CLSI was performed for all synergy testing.
(§2) Two of the MRSA strains were chosen and tested for synergy, together with the 4 Gram-negative strains mentioned above. Broth macrodilution formed the basis of MICs used in time-kill experiments, as detailed below. The kill kinetics of each drug was tested alone by incubating an initial inoculum of 5×10^5 to 5×10^6 cfu/mL with drug concentrations at the MIC, three dilutions above and three dilutions below the MIC (½, ¼ and ⅛×MIC). Viability counts were performed after 0, 3, 6, 12 and 24 h incubation at 37° C. in a shaking water bath by plating onto trypticase soy-5% sheep blood agar plates.

Data set [2] has as its system P. aeruginosa PSAR 461, PSAR 468. In words: Time-kill macrobroth MICs. Format: cell-based. As to the method: as §1, §2
A further data set can be described thus: Tissue distribution. Format: in vivo, monkey.
A further data set concerns P. aeruginosa PAO1. Put plainly: MIC by microdilution with PaβN or EGTA, wild-type strain. The format is cell-based. Here is the method: (§3) MICs of 36 clinical and laboratory strains of PA with known efflux phenotype are measured by microdilution in cation-adjusted Muller-Hinton broth (CA-MHB) or in RPMI medium (commonly used in eukaryotic cell culture). Phe-Arg-β-naphthylamide (PaβN, 50 mg/L) and EGTA 5 mM are used to inhibit efflux pumps and alter OM integrity, respectively. P. aeruginosa strain ATCC PAO1 is used as reference. PA12 is a clinical strain overexpressing the 4 main efflux systems (MexAB, MexCD, MexEF, MexXY), PA403 is a laboratory strain deleted in the genes coding for the 4 efflux systems. A series of reference strains or of clinical isolates for which the expression of genes coding for efflux pumps is known is also used for MICs determinations. MICs are measured by microdilution in MH broth or in RPMI medium (used for eukaryotic cells culture) supplemented with 10% of fetal calf serum, or in MH broth supplemented by increasing amounts of serum. EGTA (5 mM) was used as a chelating agent (disrupting outer membrane integrity) and PaβN (50 mg/L) as an unspecific efflux inhibitor.
Background: Broth dilution looks for growth in wells or tubes with falling amounts of substance.

The next data set deals with IL-8 (CXCL8) release. Put plainly: LPS-induced IL-8 (CXCL8) release in PMA-differentiated U937 cells (ELISA). The format is cell-based, human. Here is the method: Effects of macrolides on lipopolysaccharide (LPS)-induced CXCL8 release in PMA-differentiated U937 cells. […] LPS-induced CXCL8 release was evaluated by ELISA. Values represent means of three experiments±SEM. ^##p<0.01 (vs. non-treatment control), *p<0.05, **p<0.01 (vs. treatment with LPS only).
(§4) The human monocytic cell line U937 was obtained from the American Type Culture Collection (ATCC, Rockville, Md.). PBMCs from COPD patients were obtained from Brompton hospital and separated by AccuSPIN (Sigma-Aldrich). Cells were cultured in complete growth medium (RPMI 1640) (Sigma-Aldrich) supplemented with 10% fetal bovine serum (FBS) and 1% L-glutamine at 37° C. in a humidified atmosphere with 5% CO2. U937 cells were differentiated into adherent macrophage-like morphology by exposure to PMA (50 ng/mL) for 48 hrs in complete growth medium. Cell viability was assessed microscopically by trypan blue staining. Cell toxicity was determined by MTT assay as needed. This study was approved by the ethics committee of the Royal Brompton Hospitals, and all subjects gave written informed consent.
TNFα and IL-8 concentrations in the supernatant of cell cultures were determined by sandwich ELISA according to the manufacturer's instructions (R&D Systems Europe, Abingdon, UK).
(§5) The results were expressed as the mean±SEM. Comparisons of data in two groups were performed using the Student's t test or the Wilcoxon signed rank test. Multiple comparisons were made by one-way ANOVA with post hoc test (Dunnett's) as appropriate. The difference was considered significant at p<0.05. IC50 values (50% inhibitory concentration) for macrolides for production of cytokines or MMP9 were calculated using Prism 4.0 (GraphPad Software Inc., San Diego, Calif.).
For orientation: An ELISA detects its analyte on a solid surface through an enzyme-linked reagent.

In the next data set the test system is MMP9 activity. In words: PMA-induced MMP9 activation in U937 cells (gelatin zymography). Format: cell-based, human. As to conditions: read-out: IC50, PMA-induced MMP9 activation. Here is the method:
Effects of macrolides on phorbol 12-myristate 13-acetate (PMA)-induced MMP9 activation in U937 cells. […] After 48 h supernatants were collected for zymography. MMP9 enzyme activity was measured by gelatin zymography. Data are expressed relative to standard.
as §4
MMP9 enzyme activity was measured by gelatin zymography. Cell culture supernatants were diluted with equal amount of Laemli sample buffer (Bio-Rad, Hertfordshire, UK) and loaded on a Novex® 10% Zymogram (Gelatin) gel (Invitrogen Ltd, Paisley, UK). After electrophoresis, gels were incubated and rinsed with Novex® zymogram renaturing buffer (Invitrogen) for 30 min at room temperature. The gels were then rinsed in Novex® zymogram developing buffer (Invitrogen) for 30 min at room temperature prior to overnight incubation in the developing buffer at 37° C. After incubation, the gels were stained using a Colloidal Blue Staining Kit (Invitrogen) to visualize the zymogen bands.
as §5

The next data set deals with P. aeruginosa PA403. In words: MIC by microdilution with PaβN or EGTA, efflux-deleted laboratory strain. The format is cell-based. As to the method:
as §3, with “The compounds described herein are poor substrates of efflux pumps expressed in P. aeruginosa (PA). MICs of” for “MICs of”

The structures appear in SMILES notation. Converted amounts (≈) assume the structure as drawn.

The MIC is the lowest concentration that inhibits growth of the organism. By IC50 is commonly meant the concentration that inhibits the measured activity by half. As to `CC[C@H]1OC(=O)[C@@](C)(F)C(=O)[C@H](C)[C@@H](O[C@@H]2O[C@H](C)C[C@H](N(C)C)[C@H]2O)[C@](C)(OC)C[C@@H](C)C(=O)[C@H](C)[C@H]2N(CCCCn3cc(-c4cccc(N)c4)nn3)C(=O)O[C@]12C` [CEM-101, solithromycin], the “Time-kill Macrobroth MIC” value in data set [1] (strain BCEP 953) amounted to 8.0 µg/mL; in data set [1] (strain BCEP 954) it was 32.0 µg/mL; in data set [2] (strain PSAR 461), 64.0 µg/mL; in data set [2] (strain PSAR 468), 32.0 µg/mL. In addition, in the data set “Tissue distribution” (monkey), the “heart concentration relative to plasma” value turned out to be 54 fold. In the data set “Tissue distribution” (monkeys, 200 mg/kg/d), the “liver concentration relative to plasma” value is listed as 711 fold. Further, the “lung concentration relative to plasma” value in “Tissue distribution” (monkeys, 200 mg/kg/d) was 503 fold. For the same compound, the MIC turned out to be 8 µg/mL (≈ 9.47 µM) in the data set with P. aeruginosa PAO1 (PAO1, CA-MHB, EGTA 5 mM); 8 µg/mL (≈ 9.47 µM) against P. aeruginosa PAO1 (PAO1, CA-MHB, PaβN 50 mg/L); 32 µg/mL (≈ 37.9 µM) with P. aeruginosa PAO1 (PAO1, CA-MHB, control conditions (CT)); 1 µg/mL (≈ 1.18 µM) against P. aeruginosa PAO1 (PAO1, RPMI, EGTA 5 mM); 2 µg/mL (≈ 2.37 µM) against P. aeruginosa PAO1 (PAO1, RPMI, PaβN 50 mg/L); 2 µg/mL (≈ 2.37 µM) with P. aeruginosa PAO1 (PAO1, RPMI, control conditions (CT)). Moreover, the MIC with P. aeruginosa PA403 (P403, CA-MHB, EGTA 5 mM) amounted to 1 µg/mL (≈ 1.18 µM); against P. aeruginosa PA403 (P403, CA-MHB, control conditions (CT)), 4 µg/mL (≈ 4.73 µM); against P. aeruginosa PA403 (P403, RPMI, EGTA 5 mM) it was 0.25 µg/mL (≈ 0.296 µM); against P. aeruginosa PA403 (P403, RPMI, PaβN 50 mg/L), 2 µg/mL (≈ 2.37 µM); in the data set with P. aeruginosa PA403 (P403, RPMI, control conditions (CT)), 1 µg/mL (≈ 1.18 µM). Further, the IC50 with IL-8 (CXCL8) release (PMA-differentiated U937 cells, read-out: IC50, LPS-induced IL-8 (CXCL8) release) was determined as 78.2 ± 9.5 µM; in the data set on MMP9 activity it was 14.9 ± 3.1 µM. In addition, the “effect on CXCL8 production” value with IL-8 (CXCL8) release (at 100 μM) is listed as “significantly inhibited”.
